≈ marks a conversion by molar mass, not a printed value.
Tests used:
Format in all cases: cell-based, Staphylococcus aureus
[1] = system: Staph aureus 1095 MRSA; assay: MIC, microtiter broth dilution (CLSI M7-A7), Assay 1, Table 12 column A, no serum; conditions: Assay 1, no serum; for MIC: Staphylococcus aureus, MRSA
Summary of the method: (§1)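 Compounds were prepared in DMSO at 10 mg/ml, then tested by microtiter broth dilution following CLSI M7-A7. Growth was scored visually, and the MIC taken as the lowest concentration without macroscopically visible growth. Where tested repeatedly, the geometric mean is given.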

[2] = system: Staph aureus 1146; assay: MIC, microtiter broth dilution (CLSI M7-A7), Assay 1, Table 12 column B, no serum; conditions: for MIC, column B: Staph aureus 1146, Assay 1, no serum; for MIC: Staphylococcus aureus, 1146, Staph aureus 1146, Assay 1, no serum
Summary of the method: as §1

[3] = system: Staph aureus 1146; assay: MIC in Mueller-Hinton Broth with 50% pooled inactivated human serum, Assay 1, Table 12; conditions: for MIC, column C: Staph aureus 1146, Assay 1, 50% human serum; for MIC: Staphylococcus aureus, 1146, Staph aureus 1146, Assay 1, 50% human serum, read-out: MIC, column C
Summary of the method: as §1

[4] = system: Staph aureus 2811; assay: MIC, microtiter broth dilution (CLSI M7-A7), Assay 1, Table 12 column D, no serum; conditions: for MIC, column D: Staph aureus 2811, Assay 1, no serum; for MIC: Staphylococcus aureus, 2811, Staph aureus 2811, Assay 1, no serum
Summary of the method: as §1

[5] = system: Staph aureus 2812; assay: MIC, microtiter broth dilution (CLSI M7-A7), Assay 1, Table 12 column E, no serum; conditions: for MIC, column E: Staph aureus 2812, Assay 1, no serum; for MIC: Staphylococcus aureus, 2812, Staph aureus 2812, Assay 1, no serum
Summary of the method: as §1

Row | Compound | MIC, column A [1] | MIC, column B [2] | MIC, column C [3] | MIC, column D [4] | MIC, column E [5] | MIC [1] | MIC [2] | MIC [3] | MIC [4] | MIC [5]
1 | COc1ccc2ncc(F)c(CCCC3(C(=O)O)CCN(C4CC(c5c(F)cccc5F)C4)C3)c2c1 (stereo not drawn) [Example 180, 1-[3-(2,6-difluorophenyl)cyclobutyl]-3-[3-(3-fluoro-6-methoxyquinolin-4-yl)propyl]pyrrolidine-3-carboxylic acid] | <0.0625 µg/mL | <0.0625 µg/mL | 16.0 µg/mL (≈ 32.1 µM) | <0.0625 µg/mL | <0.0625 µg/mL |  |  |  |  | 
2 | COc1ccc2nccc([C@@H](O)CC[C@@H]3CCN(C4CC(c5ccc(F)c(F)c5F)C4)C[C@@H]3C(=O)O)c2c1 (stereo partly drawn) [Example 197, (3R,4R)-4-[(3S)-3-hydroxy-3-(6-methoxyquinolin-4-yl)propyl]-1-[3-(2,3,4-trifluorophenyl)cyclobutyl] piperidine-3-carboxylic acid] |  |  |  |  |  | 0.5 µg/mL (≈ 0.946 µM) | < 0.0625 µg/mL | 4 µg/mL (≈ 7.57 µM) | < 0.0625 µg/mL | < 0.0625 µg/mL
3 | COc1ccc2nccc(C(O)CC[C@@H]3CCN(C4CC(c5c(F)cccc5F)C4)C[C@@H]3C(=O)O)c2c1 (single isomer, unassigned) [Example 27] |  |  |  |  |  | ≤ 0.0625 µg/mL | ≤ 0.125 µg/mL | 0.353 µg/mL (≈ 0.692 µM) | ≤ 0.0625 µg/mL | ≤ 0.0625 µg/mL
4 | COc1ccc2nccc(C(O)CC[C@@H]3CCN(C4CC(c5ccc(F)cc5)C4)C[C@@H]3C(=O)O)c2c1 (stereo partly drawn) [Example 88, (3R,4R)-1-[3-(4-fluorophenyl)cyclobutyl]-4-[3-hydroxy-3-(6-methoxyquinolin-4-yl)propyl]piperidine-3-carboxylic acid] |  |  |  |  |  | 1 µg/mL (≈ 2.03 µM) | 0.5 µg/mL (≈ 1.02 µM) | 4 µg/mL (≈ 8.12 µM) | 0.25 µg/mL (≈ 0.508 µM) | 0.25 µg/mL (≈ 0.508 µM)
5 | COc1ccc2nccc(C(CC[C@@H]3CCN(C4CC(c5ccccc5)C4)C[C@@H]3C(=O)O)OC)c2c1 (stereo partly drawn) [Example 11, (3R,4R)-4-[3-methoxy-3-(6-methoxyquinolin-4-yl)propyl]-1-(3-phenylcyclobutyl)piperidine-3-carboxylic acid] | 1 µg/mL (≈ 2.05 µM) | 2 µg/mL (≈ 4.09 µM) | >64 µg/mL | 2 µg/mL (≈ 4.09 µM) | 2 µg/mL (≈ 4.09 µM) |  |  |  |  | 
6 | COc1ccc2ncc(F)c(CCCC3(C(=O)O)CCN(C4CC(c5c(F)cccc5F)C4)C3)c2c1 (stereo not drawn) [Example 181, 1-[3-(2,6-difluorophenyl)cyclobutyl]-3-[3-(3-fluoro-6-methoxyquinolin-4-yl)propyl]pyrrolidine-3-carboxylic acid] | <0.0625 µg/mL | <0.0625 µg/mL | 16.0 µg/mL (≈ 32.1 µM) | <0.0625 µg/mL | <0.0625 µg/mL |  |  |  |  | 
7 | COc1ccc2ncc(Cl)c(C(O)CCC3(C(=O)O)CCN(C4CC(c5c(F)cccc5F)C4)C3)c2c1 (stereo not drawn) [Example 176, 3-[3-(3-chloro-6-methoxyquinolin-4-yl)-3-hydroxypropyl]-1-[3-(2,6-difluorophenyl)cyclobutyl] pyrrolidine-3-carboxylic acid] |  |  |  |  |  | 0.125 µg/mL (≈ 0.235 µM) | < 0.0625 µg/mL | 4 µg/mL (≈ 7.53 µM) | < 0.0625 µg/mL | < 0.0625 µg/mL
8 | COc1ccc2nccc([C@@H](O)CC[C@@H]3CCN(C4CC(c5c(F)cc(F)cc5F)C4)C[C@@H]3C(=O)O)c2c1 (stereo partly drawn) [Example 69, (3R,4R)-4-[(3S)-3-hydroxy-3-(6-methoxyquinolin-4-yl)propyl]-1-[3-(2,4,6-trifluorophenyl)cyclobutyl]piperidine-3-carboxylic acid] |  |  |  |  |  | 0.5 µg/mL (≈ 0.946 µM) | 0.125 µg/mL (≈ 0.236 µM) | 2 µg/mL (≈ 3.78 µM) | 0.125 µg/mL (≈ 0.236 µM) | 0.25 µg/mL (≈ 0.473 µM)
9 | COc1ccc2nccc([C@@H](O)CC[C@@H]3CCN(C4CC(c5ccc(-c6ccccc6)cc5)C4)C[C@@H]3C(=O)O)c2c1 (stereo partly drawn) [Example 41, (3R,4R)-1-(3-biphenyl-4-ylcyclobutyl)-4-[(3S)-3-hydroxy-3-(6-methoxyquinolin-4-yl)propyl] piperidine-3-carboxylic acid] |  |  |  |  |  | > 64 µg/mL | > 64 µg/mL | > 64 µg/mL | > 64 µg/mL | > 64 µg/mL
10 | 3-{[2-(3-chloro-8-methoxyquinolin-4-yl)ethyl]amino}-1-(trans-3-phenylcyclobutyl)pyrrolidine-3-carboxylic acid [Example 114] | 1 µg/mL | 0.5 µg/mL | >64 µg/mL | 0.5 µg/mL | 0.5 µg/mL |  |  |  |  | 
11 | COc1ccc2nccc([C@@H](O)CC[C@@H]3CCN(C4CC(C5CCCC5)C4)C[C@@H]3C(=O)O)c2c1 (stereo partly drawn) [Example 48, (3R,4R)-1-(3-cyclopentylcyclobutyl)-4-[(3S)-3-hydroxy-3-(6-methoxyquinolin-4-yl)propyl]piperidine-3-carboxylic acid] | 0.25 µg/mL (≈ 0.536 µM) | 0.125 µg/mL (≈ 0.268 µM) | 1 µg/mL (≈ 2.14 µM) | 0.125 µg/mL (≈ 0.268 µM) | 0.125 µg/mL (≈ 0.268 µM) |  |  |  |  | 
12 | COc1ccc2nccc(C(O)CC[C@@H]3CCN(C4CCC(c5cc(F)ccc5F)C4)C[C@@H]3C(=O)O)c2c1 (stereo partly drawn) [Example 183, (3R,4R)-1-[3-(2,5-difluorophenyl)cyclopentyl]-4-[3-hydroxy-3-(6-methoxyquinolin-4-yl)propyl]piperidine-3-carboxylic acid] |  |  |  |  |  | 2 µg/mL (≈ 3.81 µM) | 0.25 µg/mL (≈ 0.477 µM) | 8 µg/mL (≈ 15.2 µM) | 0.25 µg/mL (≈ 0.477 µM) | 0.5 µg/mL (≈ 0.953 µM)
13 | COc1ccc2nccc([C@@H](O)CC[C@@H]3CCN(C4CC5c6ccccc6SC54)C[C@@H]3C(=O)O)c2c1 (stereo partly drawn) [Example 225] |  |  |  |  |  | 1 µg/mL (≈ 1.98 µM) | 0.25 µg/mL (≈ 0.495 µM) | 2 µg/mL (≈ 3.96 µM) | 0.25 µg/mL (≈ 0.495 µM) | 0.5 µg/mL (≈ 0.991 µM)
14 | COc1ccc2nccc([C@@H](O)CC[C@@H]3CCN(C4CC(c5ccccc5)C4)C[C@@H]3c3nn[nH]n3)c2c1 (stereo partly drawn) [Example 224, (S)-1-(6-methoxyquinolin-4-yl)-3-((3R,4R)-1-(3-phenylcyclobutyl)-3-(2H-tetrazol-5-yl)piperidin-4-yl)propan-1-ol] |  |  |  |  |  | 2 µg/mL (≈ 4.01 µM) | 0.25 µg/mL (≈ 0.501 µM) | 8 µg/mL (≈ 16 µM) | 0.25 µg/mL (≈ 0.501 µM) | 0.5 µg/mL (≈ 1 µM)
15 | O=C(O)[C@H]1CN(C2CC(c3ccccc3)C2)CC[C@H]1CCC(O)c1ccnc2ccc(OC(F)F)cc12 (stereo partly drawn) [Example 143] | 1 µg/mL (≈ 1.96 µM) | 0.5 µg/mL (≈ 0.979 µM) | 2 µg/mL (≈ 3.92 µM) | 0.5 µg/mL (≈ 0.979 µM) | 1 µg/mL (≈ 1.96 µM) |  |  |  |  | 
16 | COc1ccc2ncc(Cl)c(CCCC3(C(=O)O)CCN(C4CCC(c5cc(F)ccc5F)C4)C3)c2c1 (stereo not drawn) [Example 199, 3-[3-(3-chloro-6-methoxyquinolin-4-yl)propyl]-1-[3-(2,5-difluorophenyl)cyclopentyl]pyrrolidine-3-carboxylic acid] |  |  |  |  |  | 0.125 µg/mL (≈ 0.236 µM) | < 0.0625 µg/mL | > 64 µg/mL | < 0.0625 µg/mL | < 0.0625 µg/mL
17 | COc1ccc2ncc(Cl)c(C(O)CC[C@@H]3CCN(C4CC(c5cc(F)ccc5F)C4)C[C@@H]3C(=O)O)c2c1 (stereo partly drawn) [Example 186, (3R,4R)-4-[3-(3-chloro-6-methoxyquinolin-4-yl)-3-hydroxypropyl]-1-[3-(2,5-difluorophenyl)cyclobutyl]piperidine-3-carboxylic acid] | <0.0625 µg/mL |  | 2.00 µg/mL (≈ 3.67 µM) |  | <0.0625 µg/mL |  | < 0.0625 µg/mL |  | < 0.0625 µg/mL | 
18 | COc1ccc2ncc(F)c(C(O)CC[C@@H]3CCN(C4CC(c5c(F)cccc5F)C4)C[C@@H]3C(=O)O)c2c1 (stereo partly drawn) [Example 17, (3R,4R)-1-[3-(2,6-difluorophenyl)cyclobutyl]-4-[3-(3-fluoro-6-methoxyquinolin-4-yl)-3-hydroxypropyl]piperidine-3-carboxylic acid] |  |  |  |  |  | ≤ 0.0625 µg/mL | ≤ 0.0625 µg/mL | 0.5 µg/mL (≈ 0.946 µM) | ≤ 0.0625 µg/mL | ≤ 0.0625 µg/mL
19 | COc1ccc2nccc([C@@H](O)CC[C@@H]3CCN(C4CC(c5cccc(C#N)c5)C4)C[C@@H]3C(=O)O)c2c1 (stereo partly drawn) [Example 226, (3R,4R)-1-(3-(3-cyanophenyl)cyclobutyl)-4-((S)-3-hydroxy-3-(6-methoxyquinolin-4-yl)propyl)piperidine-3-carboxylic acid] | 16 µg/mL (≈ 32 µM) | 4 µg/mL (≈ 8.01 µM) | 32 µg/mL (≈ 64 µM) | 4 µg/mL (≈ 8.01 µM) | 8 µg/mL (≈ 16 µM) |  |  |  |  | 
20 | COc1ccc2nccc([C@@H](O)CC[C@@H]3CCN(C4CC(c5cc(C(F)(F)F)ccc5F)C4)C[C@@H]3C(=O)O)c2c1 (stereo partly drawn) [Example 62, (3R,4R)-1-{3-[2-fluoro-5-(trifluoromethyl)phenyl]cyclobutyl}-4-[(3S)-3-hydroxy-3-(6-methoxyquinolin-4-yl)propyl]piperidine-3-carboxylic acid] |  |  |  |  |  | 4 µg/mL (≈ 7.14 µM) | 2 µg/mL (≈ 3.57 µM) | 64 µg/mL (≈ 114 µM) | 1 µg/mL (≈ 1.78 µM) | 2 µg/mL (≈ 3.57 µM)
21 | COc1ccc2ncc(Cl)c(C(O)CC[C@@H]3CCN(C4CC(c5cc(F)ccc5F)C4)C[C@@H]3C(=O)O)c2c1 (stereo partly drawn) [Example 203, (3R,4R)-4-[3-(3-chloro-6-methoxyquinolin-4-yl)-3-hydroxypropyl]-1-[3-(2,5-difluorophenyl)cyclobutyl]piperidine-3-carboxylic acid] | 0.250 µg/mL (≈ 0.459 µM) | 0.125 µg/mL (≈ 0.229 µM) | 16.0 µg/mL (≈ 29.4 µM) | 0.125 µg/mL (≈ 0.229 µM) | 0.125 µg/mL (≈ 0.229 µM) |  |  |  |  | 

— patent US20080280879A1, “SUBSTITUTED HETEROCYCLIC DERIVATIVES AND THEIR PHARMACEUTICAL USE AND COMPOSITIONS” (priority 2007, published 2008)
